The test system of one experiment is TNF-α. In words: TNF-α levels in supernatants of myofibroblasts. The format is cell-based, rat. To be noted: myofibroblasts treated with foscarnet; 69 pg/ml without. The text has this:
(§1) In order to investigate whether the beneficial effect of foscarnet on the calcification process also affects immunomodulatory parameters, the inventors the effect of foscarnet on the levels of cytokines that are known as having a role in osteoblast transformation and maturation. Therefore, levels of TNF-α and IL-6 were next measured in supernatants of myofibroblasts treated with foscarnet. […] IL-6 levels.

A further experiment concerns valve myofibroblasts. In words: Von Kossa staining of cultured valve myofibroblasts (calcification / mineralization). It is filed as cell-based, rat. The following applies: for osteogenic differentiation and calcification of valve myofibroblasts (Von kossa staining): 1, 10 or 100 μg/ml, fourteen days. As for the experimental part: The present inventors have now further explored the calcification process in an attempt to specifically identify targets for interfering and prevention thereof. Therefore, the inventors next examined myofibroblasts obtained from the aortic valve of wild type rats, cultured in 24 well plates.
Myofibroblasts were incubated with PTH ([…]), or phosphate, 1, 10 or 100 μg/ml) for fourteen days. As shown by the Von kossa (calcium) staining presented by FIG. 7, the phosphate treatment, but not the PTH, induces osteogenic differentiation and calcification of valve myofibroblasts.
To test the possibility that inhibition of PIT1 would decrease mineralization, valve myofibroblasts were incubated with 10 μg/ml phosphate, or with phosphate and 0.5 mM foscarnet, the specific PIT1 inhibitor for 7 days.

In experiment [1] the test system is high Adenine, high phosphate rat model. Briefly: MSCT assessment of valve calcification (Agatston score), foscarnet study. The following applies: 5 mg/kg foscarnet i.p. (group B) vs diet group A, ninth week, P=0.05. It is filed as in vivo.
Description: MSCT scanning without contrast was performed on all rats (Brilliance, Philips Medical Systems, Groningen, Netherlands) on the ninth week. Study parameters were: 120 KVp, 300 mAs, slice thickness 0.67 mm, increment 0.3 mm. The scan was analyzed by an operator blinded to the study groups, on an off-line CT workstation. The Agatston Score was calculated by multiplying the area of a calcified lesion with a weighted CT attenuation score dependent on the maximal CT attenuation (HU) within a lesion as previously described [Agatston, A. S., et al. Journal of the American College of Cardiology 15:827-832 (1990)]. In order to asses the effect of foscarnet on treating AVC in vivo, the high Adenine, high phosphate rat model was used. Three different groups (10 rats each) were fed daily with the Adenine diet (diet group) for 6 weeks (Group A). Group B (n=9) followed the same protocol and was also treated with 5 mg/kg foscarnet administered intraperitoneally (i.p.). The control group C, received daily chew. Renal function tests, electrolytes were followed for nine weeks. Multislice computed tomography (MSCT) was performed at the ninth week. Calcium scores were calculated using the Agatston score.
Another experiment has as its system IL-6. Briefly: IL-6 levels in supernatants of myofibroblasts. It is filed as cell-based, rat. To be noted: myofibroblasts treated with foscarnet.
Description: as §1

Experimental findings from patent US20100249048A1, “BETA GLYCOLIPIDS FOR THE TREATMENT OF CALCIFICATION RELATED DEGENERATIVE DISORDERS” (priority 2007, published 2010) are described below.

`O=C(O)P(=O)(O)O` [foscarnet]: the “TNF-α levels in supernatants” value in the experiment with TNF-α came out at 5 pg/mL. The “cell mineralization (Von kossa staining)” value in the experiment with valve myofibroblasts (10 μg/ml phosphate plus 0.5 mM foscarnet, 7 days) is on record as “completely inhibited”. In addition, the “AVC, Agatston score (MSCT)” value in experiment [1] is listed as 21; in experiment [1] (listed as Forscarnet) it was “significant decrease”. In addition, the “IL-6 levels in supernatants” value in the experiment with IL-6 is “no effect”.

Turning to phosphate, in the experiment with valve myofibroblasts, the “osteogenic differentiation and calcification of valve myofibroblasts (Von kossa staining)” value is listed as “induces”.

B1: PTH: peptide hormone, the most important regulator of calcium and phosphate metabolism (peptide, UniProt P01270 32-115, looked up)
Parathyroid hormone: SVSEIQLMHNLGKHLNSMERVEWLRKKLQDVHNFVALGAPLAPRDAGSQRPRKKEDNVLVESHEKSLGEADKADVNVLTKAKSQ
modifications: Parathyroid hormone
Consider B1, for which the “osteogenic differentiation and calcification of valve myofibroblasts (Von kossa staining)” value in the experiment on valve myofibroblasts is “not”.
